Converted amounts (≈) assume the structure as drawn. Read-outs that look alike come from different tables or passages of the source.
Tests used:
[1] = Solubility (24 h, 37° C.) in JP1 and JP2; assay type: physicochemical; settings: thermodynamic from solid
[2] = Polymer screening by DSC (miscibility of Compound 1 in polymer); assay type: physicochemical
Method: Differential Scanning calorimetry (DSC) and Oil bath methods were applied to study solid dispersions comprising Compound 1. DSC is applied for the prediction of miscibility and solubility of Compound 1 in polymer.
Pure crystalline drug Compound 1 was physically mixed with each pure polymer. The equilibrium solution temperature (Tend) and Enthalpy (H) of Compound 1 in each 20% Compound 1 loaded physical mixture (PM) were measured for polymer screening by DSC (Discovery™ DSC, TA Instruments) with following steps;
−20° C. to over MP (melting point) of Compound 1 (206° C.) @1° C./min
From the endothermic peak of DSC, H and Tend were analyzed, and the change ratio A E between pure Compound 1 and PM was defined as miscibility parameters (Eq. 1). […] Therefore, the lower A E means the higher miscibility.

[3] = 20% Compound 1 loaded physical mixture with polymer, pure Compound 1 as reference

C[C@@H](NC(=O)c1ncnc(N)c1Cl)c1ncc(C(=O)Nc2cc(C(F)(F)F)c(Cl)cn2)s1 [Compound 1, (R)-2-(1-(6-amino-5-chloropyrimidine-4-carboxamido)ethyl)-N-(5-chloro-4-(trifluoromethyl)pyridin-2-yl)thiazole-5-carboxamide]
solubility at 24 h ([1]; aqueous buffer, JP2 (pH 6.8), Table 2, read-out: Solubility JP2): 1.1 µg/mL (≈ 2.17 µM)
solubility at 24 h ([1]; simulated gastric fluid, JP1 (pH 1.2), Table 2, read-out: Solubility JP1): 3.4 µg/mL (≈ 6.72 µM)
DSC H (enthalpy) [2, 3]: 102.52 J/g
DSC Tend (equilibrium solution temperature) [2, 3]: 209.958 °C
DSC ΔE (miscibility parameter) ([2]; 20% Compound 1 loaded physical mixture, lower ΔE means higher miscibility): 2.00

— patent US20220401369A1, “SOLID DISPERSION OF PAN-RAF KINASE INHIBITOR” (DAY ONE BIOPHARMACEUTICALS, INC., priority 2019, published 2022)
